{"source": "patent US4670265A", "about": "“Aloe emodin and other anthraquinones and anthraquinone-like compounds from plants virucidal against herpes simplex viruses” (priority 1984, dated 1987)", "test_system": "HSV-1 (KOS strain)", "experiment": "Plaque Reduction Assay (PRA) for anti-viral activity, HSV-1", "assay_type": "cell-based, herpes simplex virus type 1 (KOS strain)", "details": "product of reduction of Aloe emodin", "experimental": "The extract has a direct virucidal effect on HSV under the standardly accepted assay conditions employed. This effect is demonstrable by mixing the test extract directly with HSV and incubating the mixture for 15 minutes at 37° C., then diluting the mixture and assaying for the amount of viable HSV capable of producing plaques in an in vitro cell culture system. A plaque is defined as a visible, localized destruction of cells in culture produced by a single infectious virus particle or plaque forming unit and is the most sensitive assay in virology for quantitating viruses. Depending on the type and concentration of the test extract used, complete inactivation of HSV plaque forming units can be achieved in 15 minutes or less.\nMaterial for testing was obtained from Aloe plants using either whole leaf homogenates, sap or gel. Other materials for testing included dried leaves of Aloe vera and Senna, dried bark of Frangula and Cascara, dried rhizomes of Rhubarb and a commercial preparation of Aloin. All samples were tested for anti-viral activity by a Plaque Reduction Assay (PRA) using monolayer cultures of Vero (African Green Monkey Kidney) cells grown in MEM+5% calf serum. […] After adsorption, the inoculum was removed, a methyl cellulose/MEM overlay medium was added and after three days incubation the number of plaques per dish counted and averaged. […]"}
{"molecule": "O=C1c2ccccc2Cc2ccccc21", "note": "[anthrone]", "values": [{"measurement": "anti-viral activity (in words)", "value": "loss of anti-viral activity"}]}
